In US20230312478A1, “HERBICIDAL COMPOUNDS” (SYNGENTA CROP PROTECTION AG, priority 2020, published 2023):

Key:
Format in all cases: in vivo
Conditions in all cases: 250 g/ha, evaluated visually after 13 days, scale 0-5
[1] = tested on: Abutilon theophrasti (ABUTH); experiment: Herbicidal efficacy, application pre-emergence; parameters: key: 5 = total damage to plant; 0 = no damage to plant
Procedure: (§1) Seeds of a variety of test species [Ipomoea hederacea (IPOHE); Zea mays (ZEAMX); Echinochloa crus-galli (ECHCG); Setaria faberi (SETFA); Abutilon theophrasti (ABUTH); Amaranthus retroflexus (AMARE)] were sown in standard sterilised soil in pots. After cultivation for one day (pre-emergence) or after 8 days cultivation (post-emergence) under controlled conditions in a glasshouse (at 24/16° C., day/night; 14 hours light; 65 % humidity), the plants were sprayed with an aqueous spray solution derived from the formulation of the technical active ingredient in acetone / water (50:50) solution containing 0.5% Tween 20 (polyoxyethelyene sorbitan monolaurate, CAS RN 9005-64-5), subsequently diluted in water, and sprayed to give the stated application rate.
(§2) The test plants were then grown under controlled conditions in a glasshouse (at 24/16° C., day/night; 14 hours light; 65 % humidity) and watered twice daily.
(§3) After 13 days for pre- and post-emergence, the test was evaluated visually for percentage phytotoxicity to the plant (where 5 = total damage to plant; 0 = no damage to plant).

[2] = tested on: Amaranthus retroflexus (AMARE); experiment: Herbicidal efficacy, application pre-emergence; parameters: key: 5 = total damage to plant; 0 = no damage to plant
Procedure: as §1, §2, §3

[3] = tested on: Echinochloa crus-galli (ECHCG); experiment: Herbicidal efficacy, application pre-emergence; parameters: key: 5 = total damage to plant; 0 = no damage to plant
Procedure: as §1, §2, §3

[4] = tested on: Ipomoea hederacea (IPOHE); experiment: Herbicidal efficacy, application pre-emergence; parameters: key: 5 = total damage to plant; 0 = no damage to plant
Procedure: as §1, §2, §3

[5] = tested on: Setaria faberi (SETFA); experiment: Herbicidal efficacy, application pre-emergence; parameters: key: 5 = total damage to plant; 0 = no damage to plant
Procedure: as §1, §2, §3

[6] = tested on: Zea mays (ZEAMX); experiment: Herbicidal efficacy, application pre-emergence
Procedure: as §1, §2, §3

[7] = tested on: Amaranthus retroflexus (AMARE); experiment: Herbicidal efficacy, application post-emergence
Procedure: as §1, §2, §3

[8] = tested on: Echinochloa crus-galli (ECHCG); experiment: Herbicidal efficacy, application post-emergence
Procedure: as §1, §2, §3

[9] = tested on: Ipomoea hederacea (IPOHE); experiment: Herbicidal efficacy, application post-emergence
Procedure: as §1, §2, §3

[10] = tested on: Setaria faberi (SETFA); experiment: Herbicidal efficacy, application post-emergence
Procedure: as §1, §2, §3

[11] = tested on: Zea mays (ZEAMX); experiment: Herbicidal efficacy, application post-emergence
Procedure: as §1, §2, §3

[12] = tested on: Abutilon theophrasti (ABUTH); experiment: Herbicidal efficacy, application post-emergence; parameters: key: 5 = total damage to plant; 0 = no damage to plant
Procedure: as §1, §2, §3

Row | Structure (SMILES) | phytotoxicity to the plant, ABUTH [1] | phytotoxicity to the plant, AMARE [2] | phytotoxicity to the plant, ECHCG [3] | phytotoxicity to the plant, IPOHE [4] | phytotoxicity to the plant, SETFA [5] | phytotoxicity to the plant, ZEAMX [6] | phytotoxicity to the plant, AMARE [7] | phytotoxicity to the plant, ECHCG [8] | phytotoxicity to the plant, IPOHE [9] | phytotoxicity to the plant, SETFA [10] | phytotoxicity to the plant, ZEAMX [11] | phytotoxicity to the plant, ABUTH [12]
1 | CCc1cc(C2CN(C)C(=S)C2C(=O)Nc2cccc(F)c2F)nn1C(F)F (stereo not drawn) [Compound 38, 4-[1-(difluoromethyl)-5-ethyl-pyrazol-3-yl]-N-(2,3-difluorophenyl)-1-methyl-2-thioxo-pyrrolidine-3-carboxamide] | 0 | 0 | 5 | 2 | 5 | 4 | 1 | 4 | 4 | 4 | 3 | 0
2 | Cc1c(Br)c(C2CN(C)C(=O)C2C(=O)Nc2ccc(F)cc2F)nn1C(F)F (stereo not drawn) [Compound 59, 4-[4-bromo-1-(difluoromethyl)-5-methyl-pyrazol-3-yl]-N-(2,4-difluorophenyl)-1-methyl-2-oxo-pyrrolidine-3-carboxamide] | 1 | 0 | 5 | 0 | 5 | 1 | 1 | 4 | 1 | 4 | 3 | 0
3 | Cc1cc(C2CN(C)C(=S)C2C(=O)Nc2ccc(F)cc2F)nn1C(F)F (stereo not drawn) [Compound 61, 4-[1-(difluoromethyl)-5-methyl-pyrazol-3-yl]-N-(2,4-difluorophenyl)-1-methyl-2-thioxo-pyrrolidine-3-carboxamide] | 0 | 2 | 5 | 0 | 5 | 1 | 1 | 4 | 1 | 3 | 2 | 0
4 | Cc1c(F)cccc1NC(=O)C1C(=O)N(C)CC1c1cc(C)n(C(F)F)n1 (stereo not drawn) [Compound 9, 4-[1-(difluoromethyl)-5-methyl-pyrazol-3-yl]-N-(3-fluoro-2-methyl-phenyl)-1-methyl-2-oxo-pyrrolidine-3-carboxamide] | 1 | 1 | 5 | 1 | 5 | 3 | 3 | 4 | 3 | 4 | 3 | 0
5 | Cc1cc(C2CN(C)C(=S)C2C(=O)Nc2ccc(F)nc2F)nn1C(F)F (stereo not drawn) [Compound 85, 4-[1-(difluoromethyl)-5-methyl-pyrazol-3-yl]-N-(2,6-difluoro-3-pyridyl)-1-methyl-2-thioxo-pyrrolidine-3-carboxamide] | 0 | 0 | 4 | 0 | 4 | 1 | 1 | 4 | 1 | 2 | 1 | 0
6 | CCc1cc(C2CN(C)C(=O)C2C(=O)Nc2cccc(F)c2C)nn1C(F)F (stereo not drawn) [Compound 10, 4-[1-(difluoromethyl)-5-ethyl-pyrazol-3-yl]-N-(3-fluoro-2-methylphenyl)-1-methyl-2-oxo-pyrrolidine-3-carboxamide] | 2 | 1 | 5 | 2 | 5 | 4 | 1 | 4 | 4 | 4 | 4 | 0
7 | Cc1cc(C2CN(C)C(=O)C2C(=O)Nc2ccc(F)cc2F)nn1C(F)F (stereo not drawn) [Compound 57, 4-[1-(difluoromethyl)-5-methyl-pyrazol-3-yl]-N-(2,4-difluorophenyl)-1-methyl-2-oxo-pyrrolidine-3-carboxamide] | 1 | 1 | 5 | 1 | 5 | 2 | 1 | 4 | 3 | 4 | 2 | 1
8 | Cc1cc(C2CN(C)C(=O)C2C(=O)Nc2ccc(F)nc2F)nn1C(F)F (stereo not drawn) [Compound 81, 4-[1-(difluoromethyl)-5-methyl-pyrazol-3-yl]-N-(2,6-difluoro-3-pyridyl)-1-methyl-2-oxo-pyrrolidine-3-carboxamide] | 0 | 0 | 5 | 2 | 5 | 2 | 2 | 4 | 1 | 4 | 4 | 0
9 | Cc1c(Br)c(C2CN(C)C(=O)C2C(=O)Nc2ccc(F)nc2F)nn1C(F)F (stereo not drawn) [Compound 83, 4-[4-bromo-1-(difluoromethyl)-5-methyl-pyrazol-3-yl]-N-(2,6-difluoro-3-pyridyl)-1-methyl-2-oxo-pyrrolidine-3-carboxamide] | 0 | 0 | 5 | 0 | 5 | 1 | 1 | 4 | 1 | 3 | 4 | 1
10 | Cc1cc(C2CN(C)C(=O)C2C(=O)Nc2cccc(F)c2F)nn1C(F)F (stereo not drawn) [Compound 33, 4-[1-(difluoromethyl)-5-methyl-pyrazol-3-yl]-N-(2,3-difluorophenyl)-1-methyl-2-oxo-pyrrolidine-3-carboxamide] | 1 | 2 | 5 | 1 | 5 | 4 | 2 | 4 | 4 | 4 | 3 | 1
11 | CCc1cc(C2CN(C)C(=S)C2C(=O)Nc2ccc(F)cc2F)nn1C(F)F (stereo not drawn) [Compound 62, 4-[1-(difluoromethyl)-5-ethyl-pyrazol-3-yl]-N-(2,4-difluorophenyl)-1-methyl-2-thioxo-pyrrolidine-3-carboxamide] | 0 | 0 | 5 | 0 | 5 | 2 | 1 | 4 | 1 | 4 | 1 | 1
